Experimental data as given in PMC9962741, “In Silico and In Vitro Screening of Serine Racemase Agonist and In Vivo Efficacy on Alzheimer’s Disease Drosophila melanogaster” (Pharmaceuticals, 2023).

Biological target: T1, serine racemase (SRR) (Homo sapiens, UniProt Q9GZT4)
T1 construct: SRR Enzyme Human Recombinant (ENZ-232, ProSpec)
T1 sequence (Q9GZT4 1-340): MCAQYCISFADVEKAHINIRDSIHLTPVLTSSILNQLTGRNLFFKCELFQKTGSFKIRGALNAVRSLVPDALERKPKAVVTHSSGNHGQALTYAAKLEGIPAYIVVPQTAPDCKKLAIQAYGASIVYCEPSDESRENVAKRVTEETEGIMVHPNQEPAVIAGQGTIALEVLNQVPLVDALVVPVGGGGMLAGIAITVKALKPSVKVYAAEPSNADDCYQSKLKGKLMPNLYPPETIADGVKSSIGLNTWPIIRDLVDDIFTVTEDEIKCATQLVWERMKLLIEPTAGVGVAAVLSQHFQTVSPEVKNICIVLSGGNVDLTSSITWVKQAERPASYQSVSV
Test: recombinant SRR racemization of L-serine, D-serine read by coupled DAAO/HRP luminol luminescence (activation)
Format: biochemical

% increase of SRR activity: 200 % increase of SRR activity
SMILES: NC(CSc1nc2ccccn2c1[N+](=O)[O-])C(=O)O (stereo not shown) [NSC294149, 2-amino-3-(3-nitroimidazo[1,2-a]pyridin-2-yl)sulfanylpropanoic acid]
